# Data taken from US11564913B2, “Compositions and methods for treating cancer” (Children's Hospital Medical Center, priority 2019, dated 2023).
# Biological target: T1, LARG (DH/PH) (Homo sapiens, UniProt Q9NZN5)
# T1 construct: the catalytic domain (DH/PH) of the RhoGEF LARG served as negative control; MBP; made in house
# Assay: Microscale thermophoresis (MST) binding
# Conditions: no saturation at highest concentration tested, read-out: Kd, best estimate
# Procedure: FIG. 14: IODVA1 targets Vav3 in vitro and in vivo. (A) Ba/F3 cells expressing empty vector Mieg3 or p190-BCR-ABL1 were treated with vehicle control or IODVA1 (IO1, 3 μM) for 30 min and incubated with GST-Rac and glutathione beads. Beads were washed and the protein complexes were separated on SDS-PAGE and immunoblotted for pVav3. Input Vav3 was used as control. (B) Binding affinity (Kd) between IODVA1 and Vav3 (green), LARG (brown), and RacGDP (blue). […] Error bars=SD; N=3. (C) Quantification of the average number of colonies made by bone marrow wild-type (black) and Vav3^−/− (lilac) p190-BCR-ABL1 leukemic cells treated with vehicle control or IODVA1 (IO1, 1 and 3 μM) (* p≤0.05; ** p≤0.01; *** p≤0.001; ns, not significant). (D) Representative histogram data of the cell cycle analysis of wild-type (black and grey bars) and Vav3^−/− (dark and light lilac) bone marrow cells expressing p190-BCR-ABL and treated with vehicle control or IODVA1 (IO1, 3 μM) for 20 h. (E) Quantification by densitometry of the pVav3 band from FIG. 14A. […]
# To test this hypothesis, we measured its binding affinity (Kd) to recombinant Vav3 and Rac1 using microscale thermophoresis (MST); the catalytic domain (DH/PH) of the RhoGEF LARG served as negative control. […] Second, like Vav3, LARG contains a DH/PH domain responsible for the exchange activity such that any non-specific binding to this domain should be detected. […]
# T1 sequence (Q9NZN5 765-1138 limits assumed): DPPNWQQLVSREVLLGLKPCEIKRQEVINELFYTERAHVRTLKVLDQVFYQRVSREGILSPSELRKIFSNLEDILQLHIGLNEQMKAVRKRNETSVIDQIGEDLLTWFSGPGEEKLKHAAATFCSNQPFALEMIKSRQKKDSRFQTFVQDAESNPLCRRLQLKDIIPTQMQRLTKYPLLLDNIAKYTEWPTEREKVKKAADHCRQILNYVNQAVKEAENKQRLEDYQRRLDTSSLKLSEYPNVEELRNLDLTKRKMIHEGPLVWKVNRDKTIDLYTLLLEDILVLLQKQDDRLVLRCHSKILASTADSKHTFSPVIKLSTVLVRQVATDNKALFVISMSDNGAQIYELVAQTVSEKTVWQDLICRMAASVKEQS
structure (smiles),measurement,value
"OC1(c2ccccn2)N=C(Nc2nc3ccccc3[nH]2)N=C1c1ccccn1 (stereo not shown) [IODVA1, (Z)-2-((1H-benzo[d]imidazol-2-yl)imino)-4,5-di(pyridin-2-yl)-2,5-dihydro-1H-imidazol-5-ol]",Kd,~7.7 µM
